How the values were obtained:
[1] = system: TNBC cells, including MDA-MB-231 and MDA-MB-468 cells; details: 24 h; read-out: activity of machilin D (comparison value); cited from earlier work
[2] = system: TNBC cell lines MDA-MB-231, MDA-MB-468, SUM159; assay: MTT cell viability assay, 24 h exposure, three TNBC cell lines; type: cell-based
Procedure: Cell Viability Assay for Compounds 1-8: The cytotoxicity for compounds 1-8 was assessed in three Triple Negative Breast Cancer cell lines: MDA-MB-231, MDA-MB-468, an SUM159. Cells were grown to 80% confluency in T75 flasks. Media was discarded and trypsin added for 5 minutes to detach cells. Media was added to neutralize the trypsin and mixture was transferred to centrifuge tube. After centrifugation at 2000 RPM for 5 minutes, the pellet was washed with PBS and resuspended in 2 mL appropriate media. Cell density was assessed via hemocytometer and solution diluted to 40,000 cells/mL. A 96-well clear bottom plate was prepared by adding media to rows 1 and 8 and columns 1, 2, 11, and 12 to prevent evaporation from impacting sample wells. Cells were plated in the inner wells with 100 μL per well (4,000 cells/well). Plates were placed in the incubator at 37° C. and 5-10% CO2 overnight to allow cells to acclimate and adhere.
Compounds 1-8 were prepared as 80 mM stock solutions in DMSO. The stock was diluted 20 μL to 4 mL with the appropriate media to yield a new stock concentration of 400 μM and DMSO concentration of 0.5% v/v. This stock was used for six serial dilutions (1/2×) to obtain a range of concentrations from 6.25 to 400 μM. […]
Plates were removed from the incubator and treatment solutions removed. […] Plates were then read on a Biotek Synergy H1 Plate Reader at 570 nm (peak absorbance). […]

SUM159 = assay: Colony formation assay in SUM159; type: cell-based; details: SUM159, half and full IC50 concentrations, 6 days
Procedure: The ability of compounds 1, 7A, and 7B to prevent colony formation was assessed in SUM159, a Triple Negative Breast Cancer cell line. Cells were grown to 80% confluency in T75 flasks in DMEM supplemented with 10% FBS, 1% amphotericin, 1% penicillin/streptomycin, and 5 μg/mL insulin. Media was discarded and trypsin added for 5 minutes to detach cells. Media was added to neutralize the trypsin and mixture was transferred to centrifuge tube. After centrifugation at 2000 RPM for 5 minutes, the pellet was washed with PBS and resuspended in 2 mL of above media. Cell density was assessed via hemocytometer and solution diluted to 2,000 cells/mL. Cells were plated in 6-well clear bottom plates at 2,000 cells/well. Treatment conditions included control (0.5% DMSO), and compounds 1, 7A, and 7B at both half and full IC5. concentrations, All treatments were plated in triplicate for a total of 21 wells used. Plates were placed in the incubator at 37° C. and 5-10% CO2 for six days. […]
(§1) To further characterize the improved bioactivity of compounds 7A and 7B to compound 1, colonogenic and mammmosphere formation assays were performed in TNBC cell line SUM159 at full and half IC50 values (FIG. 7A-7B). […] Using colony formation assay, we evaluated the antiproliferative effects of 7A in SUM159 cells. […]

SUM159 mammosphere = assay: Mammosphere formation assay in SUM159; type: cell-based; details: SUM159, half or full IC50 concentration, 6 days
Procedure: The ability of Compounds 1, 7A, and 7B to prevent mammosphere formation was assessed in SUM159, a Triple Negative Breast Cancer cell line. Cells were grown to 80% confluency in T75 flasks in DMEM supplemented with 10% FBS, 1% amphotericin, 1% penicillin/streptomycin, and 5 μg/mL insulin, Media was discarded and trypsin added for 5 minutes to detach cells. Media was added to neutralize the trypsin and mixture was transferred to centrifuge tube. After centrifugation at 2000 RPM for 5 minutes, the pellet was washed with PBS and resuspended in 2 mL mammosphere media. Mammosphere media consists of MammoCult Human Medium (StemCell Technologies) supplemented with Heparin ([…], StermCellTechnologies) and Hydrocortisone (0.48 μg/ml, StemCell Technologies). Cell density was assessed via hemocytometer and solution diluted to 8,000 cells/mL in mammosphere media. A 24-well ultra-low-attachment clear bottom plate was prepared. Cells were plated in all wells with 500 μL per well (4,000 cells/well). […]
as §1

Compound	IC50 [1] [µM]	IC50 ([2]; 24 h exposure, range across MDA-MB-468, MDA-MB-231, SUM159, diastereomeric mixture) [µM]	colony formation (SUM159)	mammosphere growth (SUM159 mammosphere)	cytotoxicity (IC50) comparison of diastereomers ([2]; MTT, all three TNBC cell lines)
C/C=C/c1ccc(O[C@@H](C)[C@@H](O)c2ccc(O)c(OC)c2)c(OC)c1 [machilin D]	~100				
machilin C/D [Compound 1]		167 to 180	slow colony formation	slow colony formation and mammosphere growth	
C/C=C/c1ccc(O[C@@H](C)[C@@H](OCC(C)C)c2ccc(O)c(OC)c2)c(OC)c1 (racemic) [Compound 7A]			colony formation was inhibited	effective inhibition	significantly improved cytotoxicity values over 7B
